Experimental data reported in US20070128665A1, “Methods for identifying compounds interacting with small membrane-bound gtp-ases” (priority 2003, published 2007).
Where two headings read alike, the source gives them in different places.

What was measured:
CAPRI C2A/C2B domains = assay: GFP-C2A/C2B localisation, live confocal microscopy, COS-7 cells; format: cell-based
Description: Experiments were performed to assess expression of GFP-C2A/C2B domain COS-7 cells imaged by live confocal microscopy. Cells were transfected with GFP-C2A/C2B vector by lipofection and imaged 24 hours later. […] Nuclear GFP-C2A/C2B is diffusely localised throughout the nucleoplasm before stimulation (due to size of the fusion protein). […] The stimulated association/disassociation of these structures are probably due to a specific interaction with endogenous entities near the plasma membrane and within the perinuclear region, rather than non-specific aggregation (see 20 second image).

[1] = test system: membrane bound active Ras (H-Ras); assay: RAPID assay (Ras Activity Probe for Inhibitor Detection), GFP-RBD reporter, COS-7 cells; format: cell-based; conditions: 50 μM ATP
Description: COS-7 cells were grown in DMEM supplemented with 10% FCS. The day before transfection cells were seeded out on 6-well tissue culture plates containing 22 mm circular glass coverslips to obtain a confluency of 50-60% prior to transfection. DNA constructs (pcDNA3.1 H-Ras, pEGFP-C3 RBD and optionally pCl-neo CAPRI) were incubated with Genejuice (Novagen) according to manufacturers instructions and added to the cell medium to transfect (lipofect) cells. 24 hours later coverslips were mounted in a heated stage (37° C.) in KH buffer [5 mM HEPES, 10 mM glucose, 25 mM NaHCO3 1.2 mM K2HPO4, 118 mM NaCl, 4.7 mM KCl, 1.2 mM MgSO4, 1.3 mM CaCl2 (pH 7.4)]. Nipkow confocal microscopy was performed using a PerkinElmer UltraView LCI system to image GFP. […] Inhibition of Ras activation, or deactivation of active Ras, was detected by dissociation of the fluorescent […] reporter from the plasma and/or Golgi membranes, into the cytosol. This was seen as a loss of fluorescent signal from the membrane/increase in fluorescent signal in the cytosol.
The inverse relative change in fluorescence intensity at a given time point is expressed as, 1−(cytosolic fluorescence intensity/maximum experimental cytosolic fluorescence intensity)
(§1) Relative Dissociation=maximal pixel intensity of cytosolic ROI (usually at time zero) divided by the cytosolic ROI at time x during the experiment.

[2] = test system: membrane bound active Ras (H-Ras); assay: GFP-RBD dissociation in H-Ras transfected CHO.T cells; format: cell-based; conditions: ATP 50 μM
Excerpt: FIG. 6. […] GFP-RBD is localised to the plasma membrane and endomembranes in non-starved, H-Ras transfected CHO.T cells.

[3] = test system: membrane bound active Ras (H-Ras); conditions: 100 μM histamine
Excerpt: FIG. 9. […] Dissociation of the RBD from the plasma membrane is expressed as Relative Dissociation=maximal pixel intensity of cytosolic ROI (usually at time zero) divided by the cytosolic ROI at time x during the experiment.
as §1

CAPRI = assay: GFP-CAPRI translocation assay, live confocal imaging, HeLa cells; format: cell-based; conditions: HeLa cells expressing GFP-C2B; carbachol stimulation
Description: The ability of the activating peptide to induce translocation of CAPRI to the plasma membrane can be monitored by applying cell-permeable peptide to live cells expressing GFP-tagged CAPRI imaged by confocal or wide-field microscopy. Experiments were performed to assess expression of GFP-C2B compared with GFP-CAPRI in HeLa cells 24 hrs after transient transfection by lipofection. Live imaging was performed by confocal microscopy. The results are shown in FIG. 3, the image for GFP-C2B is shown on the left hand side, GFP-CAPRI images at 0 s, 30 s and 60 s are shown on the right. Cells expressing GFP-CAPRI were stimulated with carbachol to mobilise intracellular Ca^2+, time=seconds after stimulation. […] CAPRI activating peptides induce the translocation of GFP-CAPRI to the plasma membrane in the absence of agonist stimulation.

O=C(O)CN(CCOCCOCCN(CC(=O)O)CC(=O)O)CC(=O)O [EGTA]
dissociation of GFP-C2A/C2B chimera from the membrane (CAPRI C2A/C2B domains; COS-7 cells after ionomycin, 5 μM EGTA in extracellular medium): rapid dissociation of the GFP-C2A/C2B chimera from the membrane into the cytosol and nucleoplasm

Nc1ncnc2c1ncn2[C@@H]1O[C@H](COP(=O)(O)OP(=O)(O)OP(=O)(O)O)[C@@H](O)[C@H]1O [ATP]
deactivation of Ras (GFP-RBD dissociation), control cells ([1]; COS cells transfected with H-Ras and GFP-RBD only, or GAP-dead CAPRI (R47S mutant)): no detectable deactivation | dissociation of GFP-RBD from the plasma membrane (Ras deactivation) ([1]; non-starved COS-7 transfected with H-Ras, GFP-RBD and CAPRI): rapid dissociation of the GFP-RBD exclusively from the plasma membrane | deactivation of Ras at the plasma membrane (GFP-RBD dissociation) ([2]; CHO cells stably expressing CAPRI, H-Ras transfected, non-starved): rapid deactivation of Ras at the plasma membrane | GFP-RBD dissociation, parental cells ([2]; parental CHO.T cells): No such dissociation

NCCc1c[nH]cn1 [histamine]
deactivation of Ras (GFP-RBD dissociation), control cells ([3]; HeLa cells transfected with H-Ras and GFP-RBD only, or GAP-dead CAPRI (R47S mutant)): no detectable deactivation | dissociation of GFP-RBD from the plasma membrane (Ras deactivation) ([3]; non-starved HeLa transfected with H-Ras, GFP-RBD and CAPRI): rapid dissociation of the GFP-RBD from the plasma membrane

C[C@H](CCC(=O)O)C[C@H](C)C[C@H](C)C(=O)/C=C(\O)[C@H](C)C[C@H](C)C/C=C/[C@@H](C)[C@@H](O)[C@@H](C)[C@@H](O)C[C@@H]1CC[C@@](C)([C@H]2CC[C@@](C)([C@@H](C)O)O2)O1 [ionomycin]
redistribution of GFP-C2A/C2B chimera (CAPRI C2A/C2B domains; COS-7 cells, ionomycin stimulation): forms punctate vesicular structures under the plasma membrane

C[N+](C)(C)CCOC(N)=O [carbachol]
GFP-C2B localisation (CAPRI): No detectable effect
